Data: US10364256B2 (GlaxoSmithKline Intellectual Property Development Limited, priority 2015, dated 2019)
Where two headings read alike, the source gives them in different places.

Tests used:
[1] = test system: NQO1 specific enzyme activity in BEAS-2B cells (marker for NRF2 activation); assay: BEAS-2B NQO1 MTT Assay; assay type: cell-based; conditions: Homo sapiens, compound incubated 48 hours, read-out: EC50 (NQO1 specific enzyme activity induction)
Method in brief: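 BEAS-2B cells treated with compound for 48 h at 37 °C, then lysed; NQO1 activity in lysates measured kinetically by MTT reduction at A570 over 30 min. pEC50 from 3-parameter fit of ΔOD/min versus log concentration; lysate also taken for Cell Titer Glo.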

[2] = target: T1, full length Keap1 protein / full length NRF2 protein (Homo sapiens, UniProt Q14145); assay: NRF2-Keap1 TR-FRET Assay; assay type: binding; conditions: 25 nM Keap1-FlagHis and 50 nM biotin-NRF2 added
T1 construct: full length NRF2 protein and full length Keap1 protein (Keap1 exists a dimer) are used; His
Method in brief: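 Full-length Keap1-FlagHis preincubated with compound 2.25 h at 37 °C, then biotin-NRF2 added for 1.25 h at 4 °C, in Tris pH 8.0 with MgCl2, NaCl, BSA, DTT, CHAPS. TR-FRET 665/615 nm ratio normalised to with- and without-protein 1% DMSO controls; pIC50 from four-parameter fit.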

T1 sequence (Q14145 whole entry): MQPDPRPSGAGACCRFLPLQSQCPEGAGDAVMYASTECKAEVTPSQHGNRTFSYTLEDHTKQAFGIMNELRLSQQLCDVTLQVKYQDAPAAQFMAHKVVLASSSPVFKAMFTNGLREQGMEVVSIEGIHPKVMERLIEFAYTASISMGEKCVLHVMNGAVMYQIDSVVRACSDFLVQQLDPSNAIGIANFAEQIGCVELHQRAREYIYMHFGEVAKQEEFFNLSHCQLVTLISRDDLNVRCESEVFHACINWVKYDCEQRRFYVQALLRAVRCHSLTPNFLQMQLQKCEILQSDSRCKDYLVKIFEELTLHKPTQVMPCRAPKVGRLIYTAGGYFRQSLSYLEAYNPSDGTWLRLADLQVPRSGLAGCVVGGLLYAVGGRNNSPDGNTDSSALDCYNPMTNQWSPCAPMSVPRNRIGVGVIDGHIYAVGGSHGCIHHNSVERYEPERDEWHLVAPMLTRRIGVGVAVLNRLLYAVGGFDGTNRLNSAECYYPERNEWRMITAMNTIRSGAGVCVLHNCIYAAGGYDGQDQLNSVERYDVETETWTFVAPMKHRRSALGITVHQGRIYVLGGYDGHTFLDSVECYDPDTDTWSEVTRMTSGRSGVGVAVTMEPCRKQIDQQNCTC

SMILES | EC50 [1] | IC50 [2] | EC50 ([1]; BEAS-2B, 48 h)
Cn1cc([C@@H]2C[C@H]2c2c(C(=O)O)cnn2-c2cccc(-c3cccc(OCC4CCCSC4)c3)c2)nn1 (mixture of isomers) [Example 144, 5-((1,2-trans)-2-(1-Methyl-1H-1,2,3-triazol-4-yl)cyclopropyl)-1-(3′-((tetrahydro-2H-thiopyran-3-yl)methoxy)-[1,1′-biphenyl]-3-yl)-1H-pyrazole-4-carboxylic Acid] | 10 to 100 nM | 100 to 1000 nM | –
Cn1cc([C@@H]2C[C@H]2c2c(C(=O)O)cnn2-c2cccc(-c3cccc(OCC4CCC(F)(F)CC4)c3)c2)nn1 (racemic) [Example 145, 1-(3′-((4,4-Difluorocyclohexyl)methoxy)-[1,1′-biphenyl]-3-yl)-5-((1,2-trans)-2-(1-methyl-1H-1,2,3-triazol-4-yl)cyclopropyl)-1H-pyrazole-4-carboxylic acid] | 100 to 1000 nM | 100 to 1000 nM | –
Cn1cc([C@@H]2C[C@H]2c2c(C(=O)O)cnn2-c2cccc(-c3cccc(OC[C@H]4CC[C@H](C(F)(F)F)CC4)c3)c2)nn1 (racemic) [Example 146, 5-((1,2-trans)-2-(1-Methyl-1H-1,2,3-triazol-4-yl)cyclopropyl)-1-(3′-(((1r,4R)-4-(trifluoromethyl)cyclohexyl)methoxy)-[1,1′-biphenyl]-3-yl)-1H-pyrazole-4-carboxylic acid] | 10 to 100 nM | 100 to 1000 nM | –
Cn1cc([C@@H]2C[C@H]2c2c(C(=O)O)cnn2-c2cccc(-c3cccc(OCC4CCCC(C(F)(F)F)C4)c3)c2)nn1 (mixture of isomers) [Example 147, 5-((1,2-trans)-2-(1-Methyl-1H-1,2,3-triazol-4-yl)cyclopropyl)-1-(3′-((3-(trifluoromethyl)cyclohexyl)methoxy)-[1,1′-biphenyl]-3-yl)-1H-pyrazole-4-carboxylic acid] | 10 to 100 nM | 100 to 1000 nM | –
Cn1cc([C@@H]2C[C@H]2c2c(C(=O)O)cnn2-c2cccc(-c3cccc(OCC4CCCCC4C(F)(F)F)c3)c2)nn1 (mixture of isomers) [Example 148, 5-((1,2-trans)-2-(1-Methyl-1H-1,2,3-triazol-4-yl)cyclopropyl)-1-(3′-((2-(trifluoromethyl)cyclohexyl)methoxy)-[1,1′-biphenyl]-3-yl)-1H-pyrazole-4-carboxylic acid] | 10 to 100 nM | 100 to 1000 nM | –
Cn1cc([C@@H]2C[C@H]2c2c(C(=O)O)cnn2-c2cccc(-c3cccc(OCC4CCSCC4)c3)c2)nn1 (racemic) [Example 149, 5-((1,2-trans)-2-(1-Methyl-1H-1,2,3-triazol-4-yl)cyclopropyl)-1-(3′-((tetrahydro-2H-thiopyran-4-yl)methoxy)-[1,1′-biphenyl]-3-yl)-1H-pyrazole-4-carboxylic acid] | 100 to 1000 nM | 100 to 1000 nM | –
CCC1CCC(COc2cccc(-c3cccc(-n4ncc(C(=O)O)c4[C@@H]4C[C@H]4c4cn(C)nn4)c3)c2)CC1 (mixture of isomers) [Example 150, 1-(3′-((4-Ethylcyclohexyl)methoxy)-[1,1′-biphenyl]-3-yl)-5-((1,2-trans)-2-(1-methyl-1H-1,2,3-triazol-4-yl)cyclopropyl)-1H-pyrazole-4-carboxylic acid] | 10 to 100 nM | 100 to 1000 nM | –
Cn1cc([C@@H]2C[C@H]2c2c(C(=O)O)cnn2-c2cccc(-c3cccc(OCC4CCCCC4)c3F)c2)nn1 (racemic) [Example 152, 1-(3′-(Cyclohexylmethoxy)-2′-fluoro-[1,1′-biphenyl]-3-yl)-5-((1,2-trans)-2-(1-methyl-1H-1,2,3-triazol-4-yl)cyclopropyl)-1H-pyrazole-4-carboxylic Acid] | 10 to 100 nM | 100 to 1000 nM | –
Cn1cc([C@@H]2C[C@H]2c2c(C(=O)O)cnn2-c2cccc(-c3cccc(OC(C4CCCCC4)C(F)(F)F)c3)c2)nn1 (mixture of isomers) [Example 157, 1-(3′-(1-Cyclohexyl-2,2,2-trifluoroethoxy)-[1,1′-biphenyl]-3-yl)-5-((1,2-trans)-2-(1-methyl-1H-1,2,3-triazol-4-yl)cyclopropyl)-1H-pyrazole-4-carboxylic Acid] | 10 to 100 nM | 100 to 1000 nM | –
CO[C@H]1CC[C@H](COc2cccc(-c3cccc(-n4ncc(C(=O)O)c4[C@H]4C[C@@H]4c4cn(C)nn4)c3)c2)CC1 (racemic) [Example 176, 1-(3′-(((1R,4S)-4-Methoxycyclohexyl)methoxy)-[1,1′-biphenyl]-3-yl)-5-((1,2-trans)-2-(1-methyl-1H-1,2,3-triazol-4-yl)cyclopropyl)-1H-pyrazole-4-carboxylic acid] | 100 to 1000 nM | 100 to 1000 nM | –
COC1CCCCC1COc1cccc(-c2cccc(-n3ncc(C(=O)O)c3[C@H]3C[C@@H]3c3cn(C)nn3)c2)c1 (mixture of isomers) [Example 177, 1-(3′-((2-Methoxycyclohexyl)methoxy)-[1,1′-biphenyl]-3-yl)-5-((1,2-trans)-2-(1-methyl-1H-1,2,3-triazol-4-yl)cyclopropyl)-1H-pyrazole-4-carboxylic acid] | 100 to 1000 nM | 100 to 1000 nM | –
COC1CCCC(COc2cccc(-c3cccc(-n4ncc(C(=O)O)c4[C@H]4C[C@@H]4c4cn(C)nn4)c3)c2)C1 (mixture of isomers) [Example 178, 1-(3′-((3-Methoxycyclohexyl)methoxy)-[1,1′-biphenyl]-3-yl)-5-((1,2-trans)-2-(1-methyl-1H-1,2,3-triazol-4-yl)cyclopropyl)-1H-pyrazole-4-carboxylic acid] | 100 to 1000 nM | 100 to 1000 nM | –
Cn1cc([C@H]2C[C@@H]2c2c(C(=O)O)cnn2-c2cccc(-c3cccc(OC[C@H]4CC[C@H](Cl)CC4)c3)c2)nn1 (racemic) [Example 185, 1-(3′-((4-Chlorocyclohexyl)methoxy)-[1,1′-biphenyl]-3-yl)-5-((1,2-trans)-2-(1-methyl-1H-1,2,3-triazol-4-yl)cyclopropyl)-1H-pyrazole-4-carboxylic Acid] | 10 to 100 nM | 100 to 1000 nM | –
Cn1cc([C@H]2C[C@@H]2c2c(C(=O)O)cnn2-c2cccc(-c3cccc(OCC4CCCC(Cl)C4)c3)c2)nn1 (mixture of isomers) [Example 187, 1-(3′-((3-chlorocyclohexyl)methoxy)-[1,1′-biphenyl]-3-yl)-5-((1,2-trans)-2-(1-methyl-1H-1,2,3-triazol-4-yl)cyclopropyl)-1H-pyrazole-4-carboxylic acid] | 10 to 100 nM | 100 to 1000 nM | –
CCn1cc([C@H]2C[C@@H]2c2c(C(=O)O)cnn2-c2cccc(-c3cccc(OC(C)C4CCCCC4)c3)c2)nn1 (mixture of isomers) [Example 192, 1-(3′-(1-cyclohexylethoxy)-[1,1′-biphenyl]-3-yl)-5-((1,2-trans)-2-(1-ethyl-1H-1,2,3-triazol-4-yl)cyclopropyl)-1H-pyrazole-4-carboxylic acid] | 1 to 10 nM | 100 to 1000 nM | –
CCC[C@@H]1CCCCN1C(=O)c1cccc(-c2cccc(-n3ncc(C(=O)O)c3[C@H]3C[C@@H]3c3cn(CC)nn3)c2)c1 (racemic) [Example 201, 5-((1,2-trans)-2-(1-Ethyl-1H-1,2,3-triazol-4-yl)cyclopropyl)-1-(3′-((R)-2-propylpiperidine-1-carbonyl)-[1,1′-biphenyl]-3-yl)-1H-pyrazole-4-carboxylic acid] | – | 10 to 100 nM | 100 to 1000 nM
CC(Oc1cccc(-c2cccc(-n3ncc(C(=O)O)c3[C@H]3C[C@@H]3c3cn(C)nn3)c2)c1)C1CCCCCC1 (mixture of isomers) [Example 230, 1-(3′-(1-Cycloheptylethoxy)-[1,1′-biphenyl]-3-yl)-5-((1,2-trans)-2-(1-methyl-1H-1,2,3-triazol-4-yl)cyclopropyl)-1H-pyrazole-4-carboxylic acid] | 1 to 10 nM | 10 to 100 nM | –
Cn1cc([C@H]2C[C@@H]2c2c(C(=O)O)cnn2-c2cccc(-c3cccc(OCc4ccc(-c5ccccc5)cc4)c3)c2)nn1 (racemic) [Example 237, 1-(3′-([1,1′-Biphenyl]-4-ylmethoxy)-[1,1′-biphenyl]-3-yl)-5-((1,2-trans)-2-(1-methyl-1H-1,2,3-triazol-4-yl)cyclopropyl)-1H-pyrazole-4-carboxylic Acid] | 100 to 1000 nM | 1000 to 10000 nM | –
Cn1cc([C@H]2C[C@@H]2c2c(C(=O)O)cnn2-c2cccc(-c3cccc(OCc4cccc(-c5ccccc5)c4)c3)c2)nn1 (racemic) [Example 238, 1-(3′-([1,1′-Biphenyl]-3-ylmethoxy)-[1,1′-biphenyl]-3-yl)-5-((1,2- trans)-2-(1-methyl-1H-1,2,3-triazol-4-yl)cyclopropyl)-1H-pyrazole-4-carboxylic acid] | 100 to 1000 nM | 1000 to 10000 nM | –
CC(Oc1cccc(-c2cccc(-n3ncc(C(=O)O)c3[C@H]3C[C@@H]3c3cn(C)nn3)c2)c1)c1cccc(-c2ccccc2)c1 (mixture of isomers) [Example 239, 1-(3′-(1-([1,1′-Biphenyl]-3-yl)ethoxy)-[1,1′-biphenyl]-3-yl)-5-((1,2-trans)-2-(1-methyl-1H-1,2,3-triazol-4-yl)cyclopropyl)-1H-pyrazole-4-carboxylic Acid] | 100 to 1000 nM | 100 to 1000 nM | –
CC(Oc1cccc(-c2cccc(-n3ncc(C(=O)O)c3[C@H]3C[C@@H]3c3cn(C)nn3)c2)c1)c1ccc(-c2ccccc2)cc1 (mixture of isomers) [Example 240, 1-(3′-(1-([1,1′-Biphenyl]-4-yl)ethoxy)-[1,1′-biphenyl]-3-yl)-5-((1,2- trans)-2-(1-methyl-1H-1,2,3-triazol-4-yl)cyclopropyl)-1H-pyrazole-4-carboxylic acid] | 100 to 1000 nM | 1000 to 10000 nM | –
